Data taken from patent publication US20060078594A1, “Iron complex” (Conopco, Inc., d/b/a UNILEVER, priority 2004, published 2006).

Assay: Iron dialysability assay (in vitro dialysable iron from fortified dough)
Details: dough from whole-grain wheat flour fortified with 50 mg/kg iron; normalized to dough fortified with ferrous sulfate; means of 4-5 experiments; ** = significantly different from ferrous sulfate (p < 0.05)
Method: The crude mass was aliquoted and small lumps were formed (10 g±0.5 g) which were used for the iron dialysability assay.
All glassware and paddles were cleaned with 10% HNO3 (24 hours) and rinsed five times with Milli-Q® water. […] The resulting suspension was poured into a VanKel Vial and the blender beaker was rinsed twice with Milli-Q® water (20 mL) and the rinse water was added to the suspension. The stirring speed of the paddle was adjusted to 200 rpm at 37° C. […] The pH of the suspension was adjusted to 2.0 with 6N HCl and a Pepsin-HCl solution (5 mL) was added. […] A clean dialysis membrane (20 cm, Spectra/Por7, Molecular weight cut-off 8 kD) was filled with a determined amount of 0.1M NaCO3 solution and adjusted to a total volume of 25 mL with Milli-Q® water. The dialysis bag was placed in the Erlenmeyer flask containing aliquot (iii), and shaken at 37° C. at 100 beats/min for 30 minutes while the pH was being monitored. […] After that time, the contents of the dialysis bag were recovered for quantitative analysis of the iron content.
Total iron content of yeast and wheat flour was determined by inductively coupled plasma atomic emission spectrometry. […] The emission of the individual elements was measured at specific wavelengths and concentrations were quantified from standard solutions. […]

O=S(=O)([O-])[O-].[Fe+2] [Iron sulphate]
Relative availability: 1.0
